Residues, ends and D or L forms follow the SMILES beside them. A value given as a limit tells only on which side of the number the result lay.

Broadly, the inhibition is the drop in the measured response relative to a control, in per cent. Broadly, the IC50 is the midpoint of a concentration-inhibition curve.

In assay [1] the target is Transcription factor AP1 (Homo sapiens) (UniProt P05412+P01100). The assay can be described thus: Percent inhibition of transcription activator protein-1 (AP-1) in DNA binding assay at 100 uM. Format: protein-complex assay.
For assay [2], the target named is Transcription factor AP1 (Homo sapiens, UniProt P01100+P05412). The assay can be described thus: Inhibitory activity against transcription activator protein-1 (AP-1). Format: protein-complex assay.
Transcription factor AP1, sequence (P05412 whole entry): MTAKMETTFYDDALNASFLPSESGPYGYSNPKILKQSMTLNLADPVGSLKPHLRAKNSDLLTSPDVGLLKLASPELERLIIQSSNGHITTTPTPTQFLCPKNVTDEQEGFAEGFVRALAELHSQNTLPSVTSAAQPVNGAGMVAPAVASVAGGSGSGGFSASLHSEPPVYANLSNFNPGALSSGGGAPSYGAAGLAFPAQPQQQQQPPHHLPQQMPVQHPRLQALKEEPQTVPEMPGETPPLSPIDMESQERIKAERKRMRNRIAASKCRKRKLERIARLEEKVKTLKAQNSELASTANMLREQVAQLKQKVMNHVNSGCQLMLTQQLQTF
Transcription factor AP1, sequence (P01100 whole entry): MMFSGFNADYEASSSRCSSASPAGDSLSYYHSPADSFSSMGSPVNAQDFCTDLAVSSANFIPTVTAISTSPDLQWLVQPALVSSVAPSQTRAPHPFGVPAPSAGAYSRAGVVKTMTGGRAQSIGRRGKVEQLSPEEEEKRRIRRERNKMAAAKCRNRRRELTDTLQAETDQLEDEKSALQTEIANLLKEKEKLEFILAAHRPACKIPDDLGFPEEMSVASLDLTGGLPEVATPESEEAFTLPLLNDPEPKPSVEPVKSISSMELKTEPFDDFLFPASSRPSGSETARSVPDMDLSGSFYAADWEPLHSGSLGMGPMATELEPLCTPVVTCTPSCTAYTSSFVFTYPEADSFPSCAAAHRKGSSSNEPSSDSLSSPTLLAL

Turning to `CC(C)C[C@H](NC(=O)[C@H](CC(=O)O)NC(=O)[C@H](CC(C)C)NC(=O)[C@H](CCC(N)=O)NC(=O)CN)C(=O)NCC(=O)N[C@@H](CC(=O)O)C(=O)NCC(=O)O` (H-GQLDLGDG-OH), the inhibition in assay [1] turned out to be 1%. Moreover, the half-inhibitory concentration (IC50) in assay [2] is > 200 µM.

In the case of `CC(C)C[C@H](NC(=O)[C@H](CC(=O)O)NC(=O)[C@H](CC(C)C)NC(=O)[C@@H](N)CCC(N)=O)C(=O)N[C@@H](C)C(=O)N[C@@H](CC(=O)O)C(=O)NCC(=O)O` (H-QLDLADG-OH), in assay [1], the inhibition is -2%. For the same compound, the IC50 in assay [2] is > 100 µM.

As for `CC(C)C[C@H](NC(=O)[C@H](CC(=O)O)NC(=O)[C@H](CC(C)C)NC(=O)[C@H](CCC(=O)O)NC(=O)CN)C(=O)N[C@@H](C)C(=O)N[C@@H](CC(=O)O)C(=O)NCC(=O)O` (H-GELDLADG-OH), the inhibition in assay [1] was -2%. Also, in assay [2], the IC50 is > 200 µM.

Take `CC(C)C[C@H](NC(=O)[C@H](CC(=O)O)NC(=O)[C@H](CC(C)C)NC(=O)[C@H](CCC(N)=O)NC(=O)CN)C(=O)N[C@@H](C)C(=O)N[C@@H](CC(=O)O)C(=O)NCC(=O)O` (H-GQLDLADG-OH): in assay [1], the inhibition is 81%. In assay [2], this compound yielded an IC50 of 8 µM.

For `CC(C)C[C@H](NC(=O)[C@H](CC(=O)O)NC(=O)[C@H](CC(C)C)NC(=O)[C@H](CCC(N)=O)NC(=O)CN)C(=O)N[C@@H](C)C(=O)N[C@@H](CC(N)=O)C(=O)NCC(=O)O` (H-GQLDLANG-OH), the inhibition in assay [1] was 64%. Besides, in assay [2], the 50% inhibitory concentration (IC50) worked out at 52 µM.

With `CC(C)C[C@H](NC(=O)[C@H](CC(=O)O)NC(=O)[C@H](CC(C)C)NC(=O)[C@H](CCC(N)=O)NC(=O)CN)C(=O)N[C@@H](C)C(=O)N[C@@H](CC(=O)O)C(=O)O` (H-GQLDLAD-OH), the inhibition in assay [1] was 11%. In assay [2], the IC50 was > 100 µM.

Regarding `CC(C)C[C@H](NC(=O)[C@H](CCC(N)=O)NC(=O)CN)C(=O)N[C@@H](CC(=O)O)C(=O)N[C@@H](CC1CCCCC1)C(=O)N[C@@H](C)C(=O)N[C@@H](CC(=O)O)C(=O)NCC(=O)O` (HELM PEPTIDE1{G.Q.L.D.[Cha].A.D.G}$$$$V2.0), the inhibition in assay [1] was found to be 10%. In addition, in assay [2], the 50% inhibitory concentration (IC50) is > 100 µM.

In the case of `CC(C)C[C@H](NC(=O)[C@H](C)NC(=O)CN)C(=O)N[C@@H](CC(=O)O)C(=O)N[C@@H](CC(C)C)C(=O)N[C@@H](C)C(=O)N[C@@H](CC(=O)O)C(=O)NCC(=O)O` (H-GALDLADG-OH), the inhibition in assay [1] worked out at 29%. The IC50 in assay [2] was > 100 µM.

On to `CC(C)C[C@H](NC(=O)[C@H](CC(=O)O)NC(=O)[C@H](C)NC(=O)[C@H](CCC(N)=O)NC(=O)CN)C(=O)N[C@@H](C)C(=O)N[C@@H](CC(=O)O)C(=O)NCC(=O)O` (H-GQADLADG-OH), for which the inhibition in assay [1] is 11%. In assay [2], the IC50 was > 100 µM.

`CC(C)C[C@H](NC(=O)[C@H](CC(=O)O)NC(=O)[C@H](CC(C)C)NC(=O)[C@H](CCC(N)=O)NC(=O)CN)C(=O)N[C@@H](C)C(=O)N[C@@H](CC(=O)O)C(=O)N[C@@H](C)C(=O)O` (H-GQLDLADA-OH): in assay [1], the inhibition amounted to 15%. Further, the IC50 in assay [2] was > 100 µM.

On to `CC(C)C[C@H](NC(=O)[C@H](CCC(N)=O)NC(=O)CN)C(=O)N[C@@H](CC(=O)O)C(=O)N[C@@H](C)C(=O)N[C@@H](C)C(=O)N[C@@H](CC(=O)O)C(=O)NCC(=O)O` (H-GQLDAADG-OH), for which the inhibition in assay [1] came to 7%. Also, the half-maximal inhibitory concentration (IC50) in assay [2] was > 100 µM.

Take `CC(C)C[C@H](NC(=O)[C@H](CC(=O)O)NC(=O)[C@H](CC1CCCCC1)NC(=O)[C@H](CCC(N)=O)NC(=O)CN)C(=O)N[C@@H](C)C(=O)N[C@@H](CC(=O)O)C(=O)NCC(=O)O` (HELM PEPTIDE1{G.Q.[Cha].D.L.A.D.G}$$$$V2.0): the IC50 in assay [2] was > 100 µM.

In the case of `CC(C)C[C@H](NC(=O)[C@H](CC(=O)O)NC(=O)[C@H](CC(C)C)NC(=O)[C@H](CCC(N)=O)NC(=O)[C@H](C)N)C(=O)N[C@@H](C)C(=O)N[C@@H](CC(=O)O)C(=O)NCC(=O)O` (H-AQLDLADG-OH), in assay [1], the inhibition came to 5%. Besides, the IC50 in assay [2] was > 100 µM.

On to `CC(C)C[C@H](NC(=O)[C@H](CC(=O)O)NC(=O)[C@H](CC(C)C)NC(=O)[C@H](CCC(N)=O)NC(=O)CN)C(=O)N[C@@H](C)C(=O)N[C@@H](C)C(=O)NCC(=O)O` (H-GQLDLAAG-OH), for which the inhibition in assay [1] was found to be 14%. Also, the 50% inhibitory concentration (IC50) in assay [2] was > 100 µM.

As for `CC(C)C[C@H](NC(=O)[C@H](C)NC(=O)[C@H](CC(C)C)NC(=O)[C@H](CCC(N)=O)NC(=O)CN)C(=O)N[C@@H](C)C(=O)N[C@@H](CC(=O)O)C(=O)NCC(=O)O` (H-GQLALADG-OH), in assay [1], the inhibition was -1%. In assay [2], the IC50 was > 200 µM.

Take `CC(C)C[C@H](NC(=O)[C@H](CC(=O)O)NC(=O)[C@H](CC(C)C)NC(=O)[C@H](CC(N)=O)NC(=O)CN)C(=O)N[C@@H](C)C(=O)N[C@@H](CC(=O)O)C(=O)NCC(=O)O` (H-GNLDLADG-OH): in assay [1], the inhibition amounted to 42%. In addition, in assay [2], the IC50 is > 100 µM.

Take `CC(C)C[C@H](NC(=O)[C@H](CC(=O)O)NC(=O)[C@H](CC(C)C)NC(=O)[C@H](CCCCN)NC(=O)CN)C(=O)N[C@@H](C)C(=O)N[C@@H](CC(=O)O)C(=O)NCC(=O)O` (H-GKLDLADG-OH): the inhibition in assay [1] is -2%. Moreover, the IC50 in assay [2] is > 200 µM.

(Values after ChEMBL document CHEMBL1138677, “Design, synthesis, and biological evaluation of new cyclic disulfide decapeptides that inhibit the binding of AP-1 to DNA” (J Med Chem, 2004).)
